pIC50: −log10 of the molar value.
How the values were obtained:
Type in all cases: biochemical
ERK2 = ERK2 (Homo sapiens, UniProt P28482); experiment: […] kinase assay with recombinant active ERK2
p38α = p38α (Homo sapiens, UniProt Q16539); experiment: […] kinase assay with recombinant active p38α
p110α (PI3-K) = p110α (PI3-K) (Homo sapiens, UniProt P42336); experiment: […] lipid kinase assay with recombinant active p110α
p110α (PI3-K), sequence (P42336 whole entry): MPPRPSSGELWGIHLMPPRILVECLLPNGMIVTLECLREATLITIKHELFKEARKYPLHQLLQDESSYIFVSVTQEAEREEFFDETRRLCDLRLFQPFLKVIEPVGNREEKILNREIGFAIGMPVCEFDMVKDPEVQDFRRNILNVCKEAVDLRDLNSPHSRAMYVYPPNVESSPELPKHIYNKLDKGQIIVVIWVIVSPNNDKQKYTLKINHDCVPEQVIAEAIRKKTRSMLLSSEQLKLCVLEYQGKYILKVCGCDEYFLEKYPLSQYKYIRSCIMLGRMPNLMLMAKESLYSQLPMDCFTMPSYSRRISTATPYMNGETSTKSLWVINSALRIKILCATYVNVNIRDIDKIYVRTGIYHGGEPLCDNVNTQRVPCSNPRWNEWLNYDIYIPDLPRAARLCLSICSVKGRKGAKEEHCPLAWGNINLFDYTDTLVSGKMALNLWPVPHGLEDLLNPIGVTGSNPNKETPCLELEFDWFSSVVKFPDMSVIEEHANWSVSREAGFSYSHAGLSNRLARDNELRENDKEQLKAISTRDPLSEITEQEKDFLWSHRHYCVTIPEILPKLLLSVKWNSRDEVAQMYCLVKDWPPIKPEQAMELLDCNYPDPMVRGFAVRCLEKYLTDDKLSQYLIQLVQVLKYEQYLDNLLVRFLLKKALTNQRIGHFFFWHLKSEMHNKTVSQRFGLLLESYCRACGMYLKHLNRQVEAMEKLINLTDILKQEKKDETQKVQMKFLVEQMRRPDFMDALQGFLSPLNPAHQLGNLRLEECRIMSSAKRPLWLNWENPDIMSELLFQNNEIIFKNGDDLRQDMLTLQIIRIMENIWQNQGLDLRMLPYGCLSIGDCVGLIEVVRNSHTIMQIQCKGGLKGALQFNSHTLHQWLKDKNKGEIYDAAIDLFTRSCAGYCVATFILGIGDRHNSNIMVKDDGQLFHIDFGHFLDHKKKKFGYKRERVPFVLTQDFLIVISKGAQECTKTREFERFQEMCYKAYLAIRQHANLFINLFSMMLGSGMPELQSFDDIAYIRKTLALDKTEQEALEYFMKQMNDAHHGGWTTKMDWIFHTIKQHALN

ERK2, sequence (P28482 2-360): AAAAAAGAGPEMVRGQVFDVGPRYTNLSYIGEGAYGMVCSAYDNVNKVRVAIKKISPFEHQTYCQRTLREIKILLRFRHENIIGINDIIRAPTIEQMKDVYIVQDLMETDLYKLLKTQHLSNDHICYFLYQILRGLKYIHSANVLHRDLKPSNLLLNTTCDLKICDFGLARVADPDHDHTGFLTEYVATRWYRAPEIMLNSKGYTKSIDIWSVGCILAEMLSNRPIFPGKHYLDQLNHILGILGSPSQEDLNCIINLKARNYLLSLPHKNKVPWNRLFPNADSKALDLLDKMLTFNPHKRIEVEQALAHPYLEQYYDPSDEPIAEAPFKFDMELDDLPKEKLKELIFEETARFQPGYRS
p38α, sequence (Q16539 2-360): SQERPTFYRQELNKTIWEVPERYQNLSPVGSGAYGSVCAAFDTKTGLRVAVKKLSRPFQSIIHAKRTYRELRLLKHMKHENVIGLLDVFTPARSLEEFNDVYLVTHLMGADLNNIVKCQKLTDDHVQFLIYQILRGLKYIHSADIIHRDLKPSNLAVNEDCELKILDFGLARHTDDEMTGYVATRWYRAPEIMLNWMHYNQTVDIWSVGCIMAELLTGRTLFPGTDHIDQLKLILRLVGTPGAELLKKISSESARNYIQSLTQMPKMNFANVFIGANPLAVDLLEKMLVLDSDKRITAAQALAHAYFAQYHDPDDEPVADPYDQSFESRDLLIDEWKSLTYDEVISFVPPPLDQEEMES

pIC50 (ERK2): 4.68
pIC50 (p38α): 4.89
pIC50 (p110α (PI3-K)): 4.99
Structure (SMILES): O=C1CCC(O)(CCOC(=O)/C=C/c2ccc(O)c(O)c2)CC1 [HOEC, (+)-2-(1-hydroxyl-4-oxocyclohexyl) ethyl caffeate]
